From patent publication US20100137222A1, “Basic Peptides and Their Use as Combined Antibacterial-Antifungine Agents” (NOVABIOTICS LIMITED, priority 2007, published 2010)
Read-outs that look alike come from different tables or passages of the source. Marks after values point to notes of the source that are not given here. No end group written: not given here.

Columns and labels:
[1] = test system: M. furfur DSM6170; type: cell-based, Malassezia furfur
Experimental: Broth Dilution Antifungal Susceptibility Testing
The sensitivity of relevant fungal strains to peptides was determined using Clinical Laboratory Standard Institute (CLSI; formerly NCCLS) Approved Standards. Yeast susceptibility was tested using “Reference Method for Broth Dilution Antifungal Susceptibility Testing of Yeasts; Approved Standard—Second Edition M27-A”.

[2] = test system: P. acnes DSM1897; type: cell-based, Propionibacterium acnes
Experimental: Broth Dilution Antibacterial Susceptibility Testing
The sensitivity of relevant bacterial strains to peptides was determined using Clinical Laboratory Standard Institute (CLSI; formerly NCCLS) Approved Standards. Bacterial susceptibility was tested using “Methods for Dilution Antimicrobial Susceptibility Tests for Bacteria That Grow […]; Approved Standard—Seventh Edition M7-A7”

[3] = Table 3, starred values (*value in mg/ml)
[4] = Table 1, starred values (*value in mM)

Row | Compound | Antimicrobial Activity (MIC) P. acnes DSM1897 ([2]; DSM1897) | also measured
1 | N=C(N)NCCC[C@H](NC(=O)[C@H](CCCNC(=N)N)NC(=O)[C@H](CCCNC(=N)N)NC(=O)[C@H](CCCNC(=N)N)NC(=O)[C@H](CCCNC(=N)N)NC(=O)[C@H](CCCNC(=N)N)NC(=O)[C@H](CCCNC(=N)N)NC(=O)[C@H](CCCNC(=N)N)NC(=O)[C@H](CCCNC(=N)N)NC(=O)[C@H](CCCNC(=N)N)NC(=O)[C@@H](N)CCCNC(=N)N)C(=O)O [NP317] | <0.0156 mM | Antimicrobial Activity (MIC) M. furfur DSM6170 ([1]; DSM6170): <0.0156 mM; MIC against Malassezia furfur DSM6170 ([1]; Table 3, unstarred values): <0.0156 mM
2 | N=C(N)NCCC[C@H](NC(=O)[C@H](CCCNC(=N)N)NC(=O)[C@H](CCCNC(=N)N)NC(=O)[C@H](CCCNC(=N)N)NC(=O)[C@H](CCCNC(=N)N)NC(=O)[C@H](CCCNC(=N)N)NC(=O)[C@H](CCCNC(=N)N)NC(=O)[C@H](CCCNC(=N)N)NC(=O)[C@H](CCCNC(=N)N)NC(=O)[C@H](CCCNC(=N)N)NC(=O)[C@H](CCCNC(=N)N)NC(=O)[C@H](CCCNC(=N)N)NC(=O)[C@@H](N)CCCNC(=N)N)C(=O)O [NP337] | 0.0025 mM | Antimicrobial Activity (MIC) M. furfur DSM6170 ([1]; DSM6170): 0.03125 mM
3 | CC(=O)N[C@@H](CCCNC(=N)N)C(=O)N[C@@H](CCCNC(=N)N)C(=O)N[C@@H](CCCNC(=N)N)C(=O)N[C@@H](CCCNC(=N)N)C(=O)N[C@@H](CCCNC(=N)N)C(=O)N[C@@H](CCCNC(=N)N)C(=O)N[C@@H](CCCNC(=N)N)C(=O)N[C@@H](CCCNC(=N)N)C(=O)N[C@@H](CCCNC(=N)N)C(=O)N[C@@H](CCCNC(=N)N)C(=O)N[C@@H](CCCNC(=N)N)C(=O)N[C@@H](CCCNC(=N)N)C(=O)N[C@@H](CCCNC(=N)N)C(N)=O [NP338] | 0.005 mM | Antimicrobial Activity (MIC) M. furfur DSM6170 ([1]; DSM6170): <0.0156 mM; MIC against Malassezia furfur DSM6170 ([1]; Table 3, unstarred values): <0.0156 mM
4 | N=C(N)NCCC[C@@H](N)C(=O)N[C@H](CCCNC(=N)N)C(=O)N[C@H](CCCNC(=N)N)C(=O)N[C@H](CCCNC(=N)N)C(=O)N[C@H](CCCNC(=N)N)C(=O)N[C@H](CCCNC(=N)N)C(=O)N[C@H](CCCNC(=N)N)C(=O)N[C@H](CCCNC(=N)N)C(=O)N[C@H](CCCNC(=N)N)C(=O)N[C@H](CCCNC(=N)N)C(=O)N[C@H](CCCNC(=N)N)C(=O)N[C@H](CCCNC(=N)N)C(=O)N[C@H](CCCNC(=N)N)C(=O)O [NP339, dRdRdRdRdRdRdRdRdRdRdRdRdR] | 0.02 mM | Antimicrobial Activity (MIC) M. furfur DSM6170 ([1]; DSM6170): 0.008 mM
5 | CC(=O)N[C@H](CCCNC(=N)N)C(=O)N[C@H](CCCNC(=N)N)C(=O)N[C@H](CCCNC(=N)N)C(=O)N[C@H](CCCNC(=N)N)C(=O)N[C@H](CCCNC(=N)N)C(=O)N[C@H](CCCNC(=N)N)C(=O)N[C@H](CCCNC(=N)N)C(=O)N[C@H](CCCNC(=N)N)C(=O)N[C@H](CCCNC(=N)N)C(=O)N[C@H](CCCNC(=N)N)C(=O)N[C@H](CCCNC(=N)N)C(=O)N[C@H](CCCNC(=N)N)C(=O)N[C@H](CCCNC(=N)N)C(N)=O [NP340, Ac-dRdRdRdRdRdRdRdRdRdRdRdRdR-NH2] | 0.02 mM | Antimicrobial Activity (MIC) M. furfur DSM6170 ([1]; DSM6170): 0.008 mM
6 | (H)n, n = 32-161, HCl salt (5-25 kDa) [NP131] |  | MIC against Malassezia furfur DSM6170 [1, 3]: 0.0625* mg/ml
7 | (H)n, n = >32, HCl salt (>5 kDa) [NP132] |  | MIC against Malassezia furfur DSM6170 [1, 3]: 0.0625* mg/ml
8 | (I-K)n, n = 7-27, HBr salt [NP106] |  | Antimicrobial Activity (MIC) M. furfur DSM6170 ([1]; Table 1, unstarred values): 0.5 mg/mL; Antimicrobial Activity (MIC) P. acnes DSM1897 ([2]; Table 1, unstarred values): 0.125 mg/mL
9 | (I-K)n, n = 100-200, HCl salt [NP101] |  | Antimicrobial Activity (MIC) P. acnes DSM1897 ([2]; Table 1, unstarred values): 0.1 mg/mL
10 | (R)n, n = 28-86, HCl salt (5-15 kDa) [NP121] |  | MIC against Malassezia furfur DSM6170 [1, 3]: 0.25* mg/ml
11 | (R)n, n = 86-402, HCl salt (15-70 kDa) [NP122] |  | MIC against Malassezia furfur DSM6170 [1, 3]: 0.25* mg/ml
12 | GKKEKPEKKVKK [NP331] | >2 mM | 
13 | KKKDKVKK [NP334] | >2 mM | 
14 | KKKKK [NP343, KKKKK] | >10* mM | 
15 | KKKKKEGKKQEKMLD [NP333] | >2 mM | 
16 | KKKKKKK [NP344, KKKKKKK] | >10* mM | Antimicrobial Activity (MIC) M. furfur DSM6170 ([1]; DSM6170): 1* mM
17 | KKKKKKKKK [NP345] | 2.5* mM | 
18 | KKKKKKKKKKKKKKK [NP348] |  | Antimicrobial Activity (MIC) M. furfur DSM6170 [1, 4]: 0.25* mM; Antimicrobial Activity (MIC) P. acnes DSM1897 [2, 4]: 0.0625* mM
19 | KLTKPKPQAESKKKKK [NP332] | >2 mM | 
20 | KVRQGTLKKAR [NP335] | >2 mM | 
21 | PKTKAKAKAKKGKGKD [NP336] | >2 mM | 

Row | Compound | Antimicrobial Activity (MIC) P. acnes DSM1897 ([2]; DSM1897) | also measured
22 | RRRRVVRRRR [NP310] | 0.5 mM | Antimicrobial Activity (MIC) M. furfur DSM6170 ([1]; DSM6170): 0.5 mM; MIC against Malassezia furfur DSM6170 ([1]; Table 3, unstarred values): 0.5 mM
23 | RRRVRRR [NP306, RRRVRRR] | 2 mM | 
24 | RRRVVRRR [NP308] | >2 mM | 
25 | RRRWRRR [NP325, RRRWRRR] | 2 mM | 
26 | RRRWWRRR [NP327] | 0.125 mM | 
27 | RRVRR [NP303, RRVRR] | >2 mM | 
28 | RRVRRVRR [NP309] | 1 mM | 
29 | RRVRVR [NP304, RRVRVR] | >2 mM | 
30 | RRVRVRR [NP307, RRVRVRR] | >2 mM | 
31 | RRVVR [NP302, RRVVR] | >2 mM | 
32 | RRVVRR [NP305, RRVVRR] | >2 mM | 
33 | RRVVRRVVRR [NP311] | 2 mM | 
34 | RRWRR [NP322, RRWRR] | 2 mM | 
35 | RRWRRWRR [NP328] | 0.5 mM | 
36 | RRWRWR [NP323, RRWRWR] | 0.5 mM | 
37 | RRWRWRR [NP326, RRWRWRR] | 0.25 mM | 
38 | RRWWR [NP321, RRWWR] | 1 mM | 
39 | RRWWRR [NP324, RRWWRR] | 0.25 mM | 
40 | RVRVR [NP301, RVRVR] | >2 mM | 
41 | RWRWR [NP320, RWRWR] | 1 mM | 
